The nature of data set [1]: Urinary excretion of the radioactive metal (^99mTc) complex in animals, gamma camera imaging and renal time activity curves. As to conditions: male rabbits; for time to achieve maximum activity (Tmax) / time to eliminate half of the maximum activity (T1/2): ear vein injection 1.0±0.1 mCi, from ROI time activity curve. Type of data set: in vivo, rabbits (New Zealand White). The procedure: (§1) Male rabbits (New Zealand White) were anesthetized by the intramuscular injection of 25 mg/kg of Ketamine (Yuhan Corporation, Korea) and 6 mg/kg of Rompun (Bayer Korea), and then received through the ear vein 1.0±0.1 mCi of the ^99mTc-DTPA derivative complex, ^99mTc-DTPA-mono(3-amido-2,4,6-triiodobenzoic acid). The behavior of the drug was monitored for 30 min by scanning the whole body of rabbits using a gamma camera (SIMENSE, Germany). The gamma camera was equipped with a parallel hole collimator, and was set at an energy level of 140 keV to obtain images.
In addition, regions of interest (ROIs) were created around the right and left kidneys to produce time activity curves. From the time activity curves, time to achieve maximum activity (Tmax) and time to eliminate half of the maximum activity (T1/2) for each kidney were calculated using a computer system (SINCTRON IV, Germany), and the results are given in FIG. 4.

Data set [2] can be described thus: Urinary excretion of the radioactive metal (^166Ho) complex in animals, gamma camera imaging and renal time activity curves. Type of data set: in vivo, rabbits (New Zealand White). As to conditions: male rabbits; for half time of the maximum activity (T1/2) / time to maximum activity (Tmax): ear vein injection 3.0±0.2 mCi, from ROI time activity curve. The procedure:
as §1, with “by” for “by the”, “3.0±0.2” for “1.0±0.1”, “^166Ho-DTPA-bis(5-amido-2,4,6-triiodoisophthalic” for “the ^99mTc-DTPA derivative complex, ^99mTc-DTPA-mono(3-amido-2,4,6-triiodobenzoic”, “81 keV. At this energy level, images were obtained using a medium-energy collimator with a window width of 20%.” for “140 keV to obtain images.”
In addition, regions of interest (ROIs) were created around the right and left kidneys to produce time activity curves. From the time activity curves, time to maximum activity (Tmax) and half time of the maximum activity (T1/2) for each kidney were calculated using a computer system (SINCTRON IV, Germany), and the results are given in FIG. 6.

Some results are limits rather than exact numbers.

Results on two substances are retold here after US7666390B2, “DTPA derivatives and metal complexes thereof, and radiation source and contrast agent including the metal complexes” (Korea Atomic Energy Research Institute, priority 2005, dated 2010).

“^99mTc-DTPA-mono(3-amido-2,4,6-triiodobenzoic acid)”: the “radioactivity in the kidneys” value in data set [1] (30 min after injection) is listed as “decrease to a level near the non-specific background signal”. Besides, in data set [1] (left kidney), the “time to achieve maximum activity (Tmax)” value turned out to be 1 min and the “time to eliminate half of the maximum activity (T1/2)” value amounted to 5 min. Moreover, the “time from injection by which mostly excreted via the kidneys and bladder” value in data set [1] (ear vein injection, whole body gamma camera scan for 30 min, 140 keV) was no more than 30 min. Also, in data set [1] (right kidney), the “time to achieve maximum activity (Tmax)” value was 1 min and the “time to eliminate half of the maximum activity (T1/2)” value is 5.5 min.

As for “^166Ho-DTPA-bis(5-amido-2,4,6-triiodoisophthalic acid)”, the “radioactivity in the kidneys” value in data set [2] (30 min after injection) is listed as “decrease to a level near the non-specific background signal”. Further, the “half time of the maximum activity (T1/2)” value in data set [2] (left kidney) came to 6.5 min; in data set [2] (right kidney), 7.5 min. For the same substance, the figures for the “time to maximum activity (Tmax)” value in data set [2] (left kidney) and in data set [2] (right kidney) were 1.5 min and 1.75 min, respectively. Besides, the “time from injection by which mostly excreted via the kidneys and bladder” value in data set [2] (ear vein injection, whole body gamma camera scan for 30 min, 81 keV) is given as no more than 30 min.
